Laboratory results: patent US12624044B2, “SMARCA degraders and uses thereof” (Kymera Therapeutics, Inc., priority 2019, dated 2026)

Experiments:
SMARCA2 = SMARCA2 (Homo sapiens, UniProt P51531); test: MSD SMARCA2 degradation in A549 cell line; type: cell-based; settings: 24 h; for Dmax: A549, A549 cells; for DC50: A549 cells, read-out: SMARCA2 MSD A549 degradation 24 h: Average external-Abs DC50
In short: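 SMARCA2 remaining was measured by MSD electrochemiluminescence on RIPA lysates (anti-SMARCA2 plus SULFO-TAG anti-rabbit). Prior exposure: 24 h of A549 cells to a 10-point, 3-fold dilution series topping at 1000 nM final; Dmax % given as graded codes.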

SMARCA4 = target: T1, SMARCA4 (Homo sapiens, UniProt P51532); test: SMARCA4 Western blot MV4-11 degradation; type: cell-based; settings: 24 h; for Dmax: MV4-11, MV4-11 cells, read-out: SMARCA4 WB MV411 degradation 24 h: Average Dmax %; for DC50: MV4-11 cells, read-out: SMARCA4 WB MV411 degradation 24 h: Average external-Abs DC50
T1 construct: SMARCA2 and SMARCA4 protein degradation in MV4-11 cells; endogenous in cells; host or cells: MV4-11
In short: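 MV4-11 cells treated with compound for 24 h, lysed in RIPA with protease/phosphatase inhibitors, and SMARCA2 and SMARCA4 (BRG1) levels assessed by Western blot with β-actin loading control and LI-COR fluorescent read-out. Maximal degradation (Dmax %) after 24 h binned into letter codes.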

T1 sequence (P51532 whole entry): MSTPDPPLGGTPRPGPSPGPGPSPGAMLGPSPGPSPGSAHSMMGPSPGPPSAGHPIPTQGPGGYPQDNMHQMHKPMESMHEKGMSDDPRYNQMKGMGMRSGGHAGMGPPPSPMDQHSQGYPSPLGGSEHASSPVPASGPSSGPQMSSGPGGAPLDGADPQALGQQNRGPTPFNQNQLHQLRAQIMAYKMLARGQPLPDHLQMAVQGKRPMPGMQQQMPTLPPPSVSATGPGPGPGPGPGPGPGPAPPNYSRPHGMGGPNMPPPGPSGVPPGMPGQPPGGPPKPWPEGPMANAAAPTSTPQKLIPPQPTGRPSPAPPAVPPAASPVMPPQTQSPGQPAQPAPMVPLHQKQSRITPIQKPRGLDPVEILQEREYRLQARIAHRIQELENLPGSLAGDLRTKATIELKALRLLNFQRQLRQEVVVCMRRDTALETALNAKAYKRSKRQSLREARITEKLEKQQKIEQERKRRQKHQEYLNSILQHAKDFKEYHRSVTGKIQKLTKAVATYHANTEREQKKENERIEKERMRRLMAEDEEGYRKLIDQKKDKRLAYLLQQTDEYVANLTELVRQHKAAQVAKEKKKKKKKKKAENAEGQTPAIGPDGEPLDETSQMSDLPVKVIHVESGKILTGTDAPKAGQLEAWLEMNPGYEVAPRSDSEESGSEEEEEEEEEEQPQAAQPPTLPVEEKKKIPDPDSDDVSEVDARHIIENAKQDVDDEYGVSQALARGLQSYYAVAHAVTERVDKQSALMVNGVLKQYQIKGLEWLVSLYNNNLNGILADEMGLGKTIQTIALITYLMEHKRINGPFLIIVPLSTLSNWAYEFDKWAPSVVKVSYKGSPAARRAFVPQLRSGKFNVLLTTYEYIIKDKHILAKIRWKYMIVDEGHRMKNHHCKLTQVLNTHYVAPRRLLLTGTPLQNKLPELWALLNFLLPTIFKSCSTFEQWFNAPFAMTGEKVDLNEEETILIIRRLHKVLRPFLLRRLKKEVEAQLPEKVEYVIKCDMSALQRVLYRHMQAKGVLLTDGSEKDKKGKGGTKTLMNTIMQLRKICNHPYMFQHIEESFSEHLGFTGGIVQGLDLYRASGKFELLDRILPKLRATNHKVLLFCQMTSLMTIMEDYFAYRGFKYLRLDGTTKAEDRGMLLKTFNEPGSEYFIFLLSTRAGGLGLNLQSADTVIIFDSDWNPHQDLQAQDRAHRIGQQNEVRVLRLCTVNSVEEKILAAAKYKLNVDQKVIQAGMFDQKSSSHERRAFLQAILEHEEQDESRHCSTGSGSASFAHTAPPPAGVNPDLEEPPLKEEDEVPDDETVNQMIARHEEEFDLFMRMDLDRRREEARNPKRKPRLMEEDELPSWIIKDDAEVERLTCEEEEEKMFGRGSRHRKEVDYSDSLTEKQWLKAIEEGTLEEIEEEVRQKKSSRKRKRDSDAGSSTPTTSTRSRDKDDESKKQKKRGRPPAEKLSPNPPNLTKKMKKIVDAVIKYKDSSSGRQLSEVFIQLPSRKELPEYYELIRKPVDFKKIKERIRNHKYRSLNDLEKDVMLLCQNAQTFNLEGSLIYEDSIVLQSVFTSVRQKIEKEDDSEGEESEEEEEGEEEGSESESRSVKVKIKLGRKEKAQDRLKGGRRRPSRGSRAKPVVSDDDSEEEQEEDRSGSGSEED
Sequence of SMARCA2 (P51531 whole entry): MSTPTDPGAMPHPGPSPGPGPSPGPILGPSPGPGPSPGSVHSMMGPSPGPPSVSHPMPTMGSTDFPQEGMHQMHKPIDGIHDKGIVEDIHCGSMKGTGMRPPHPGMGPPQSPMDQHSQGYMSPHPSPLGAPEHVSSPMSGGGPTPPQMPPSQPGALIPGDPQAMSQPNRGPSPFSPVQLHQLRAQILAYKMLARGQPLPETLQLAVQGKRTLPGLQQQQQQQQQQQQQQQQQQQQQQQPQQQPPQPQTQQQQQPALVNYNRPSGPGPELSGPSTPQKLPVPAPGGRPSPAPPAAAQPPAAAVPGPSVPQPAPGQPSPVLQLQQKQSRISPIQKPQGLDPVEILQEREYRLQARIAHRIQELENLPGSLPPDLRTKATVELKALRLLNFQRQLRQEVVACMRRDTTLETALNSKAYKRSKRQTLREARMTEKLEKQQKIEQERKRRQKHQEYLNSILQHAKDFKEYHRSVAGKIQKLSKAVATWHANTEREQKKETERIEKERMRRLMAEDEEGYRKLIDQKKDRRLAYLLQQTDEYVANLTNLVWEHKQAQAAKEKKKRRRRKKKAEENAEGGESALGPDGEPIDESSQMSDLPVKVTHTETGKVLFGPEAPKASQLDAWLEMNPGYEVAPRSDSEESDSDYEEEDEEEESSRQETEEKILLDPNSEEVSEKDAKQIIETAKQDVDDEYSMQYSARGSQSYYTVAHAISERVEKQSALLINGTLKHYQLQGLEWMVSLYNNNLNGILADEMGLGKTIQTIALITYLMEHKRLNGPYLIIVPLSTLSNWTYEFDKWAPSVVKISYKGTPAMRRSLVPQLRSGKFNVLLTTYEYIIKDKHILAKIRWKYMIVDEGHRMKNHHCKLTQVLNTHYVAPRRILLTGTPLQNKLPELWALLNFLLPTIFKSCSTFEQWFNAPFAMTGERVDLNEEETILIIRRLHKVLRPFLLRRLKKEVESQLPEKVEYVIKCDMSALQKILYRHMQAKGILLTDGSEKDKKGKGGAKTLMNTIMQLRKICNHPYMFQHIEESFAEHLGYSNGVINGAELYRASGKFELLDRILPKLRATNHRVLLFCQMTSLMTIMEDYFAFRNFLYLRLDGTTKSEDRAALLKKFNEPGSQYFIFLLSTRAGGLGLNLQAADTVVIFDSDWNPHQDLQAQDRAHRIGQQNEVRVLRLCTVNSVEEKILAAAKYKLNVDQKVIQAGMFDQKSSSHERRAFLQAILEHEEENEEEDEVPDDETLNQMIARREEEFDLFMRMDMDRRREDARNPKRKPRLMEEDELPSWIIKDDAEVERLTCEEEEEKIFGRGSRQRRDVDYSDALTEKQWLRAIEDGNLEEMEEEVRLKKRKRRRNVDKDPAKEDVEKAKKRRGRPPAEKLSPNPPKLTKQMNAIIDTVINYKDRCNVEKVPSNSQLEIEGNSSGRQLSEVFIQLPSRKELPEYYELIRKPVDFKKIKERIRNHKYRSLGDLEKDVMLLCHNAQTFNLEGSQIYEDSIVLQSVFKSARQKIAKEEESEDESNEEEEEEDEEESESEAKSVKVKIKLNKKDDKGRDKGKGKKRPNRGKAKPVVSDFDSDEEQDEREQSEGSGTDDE

Row | Structure (SMILES) | Dmax (SMARCA2) [%] | DC50 (SMARCA2) [nM] | Dmax (SMARCA4) [%] | DC50 (SMARCA4) [nM]
1 | Cc1ncsc1-c1ccc(CNC(=O)[C@@H]2C[C@@H](O)CN2C(=O)[C@@H](NC(=O)C2CCN(Cc3cnc(N4C5CCC4CN(c4cc(-c6ccccc6O)nnc4N)C5)nc3)CC2)C(C)(C)C)cc1 [I-338] | > 90 | 100 to 500 | > 90 | < 100
2 | Cc1ncsc1-c1ccc(CNC(=O)[C@@H]2C[C@@H](O)CN2C(=O)[C@@H](NC(=O)N2CCN(Cc3cnc(N4C5CCC4CN(c4cc(-c6ccccc6O)nnc4N)C5)nc3)CC2)C(C)(C)C)cc1 [I-339] | 70 to 90 | 100 to 500 | > 90 | < 100
3 | Cc1ncsc1-c1ccc(CNC(=O)[C@@H]2C[C@@H](O)CN2C(=O)[C@@H](NC(=O)COCC#Cc2cnc(N3C4CCC3CN(c3cc(-c5ccccc5O)nnc3N)C4)nc2)C(C)(C)C)cc1 [I-340] | > 90 | 100 to 500 | > 90 | < 100
4 | Cc1ncsc1-c1ccc(CNC(=O)[C@@H]2C[C@@H](O)CN2C(=O)[C@@H](NC(=O)CCCC#Cc2cnc(N3C4CCC3CN(c3cc(-c5ccccc5O)nnc3N)C4)nc2)C(C)(C)C)cc1 [I-341] | > 90 | 100 to 500 | > 90 | < 100
5 | Cc1ncsc1-c1ccc(CNC(=O)[C@@H]2C[C@@H](O)CN2C(=O)[C@@H](NC(=O)C2CCN(C(=O)c3cnc(N4C5CCC4CN(c4cc(-c6ccccc6O)nnc4N)C5)nc3)CC2)C(C)(C)C)cc1 [I-342, 1-[2-[3-[3-amino-6-(2-hydroxyphenyl)pyridazin-4-yl]-3,8-diazabicyclo [3.2.1]octan-8-yl]pyrimidine-5-carbonyl]-N-[(1S)-1-[(2S,4R)-4-hydroxy-2-[[4-(4-methylthiazol-5-yl)phenyl]methylcarbamoyl]pyrrolidine-1-carbonyl]-2,2-dimethyl-propyl]piperidine-4-carboxamide] | < 50 | > 1000 | 70 to 90 | 100 to 500
6 | Cc1ncsc1-c1ccc(CNC(=O)[C@@H]2C[C@@H](O)CN2C(=O)[C@@H](NC(=O)N2CCN(C(=O)c3cnc(N4C5CCC4CN(c4cc(-c6ccccc6O)nnc4N)C5)nc3)CC2)C(C)(C)C)cc1 [I-343] | < 50 | > 1000 | > 90 | 100 to 500
7 | Cc1ncsc1-c1ccc(CNC(=O)[C@@H]2C[C@@H](O)CN2C(=O)[C@@H](NC(=O)C(=O)N2CCC(c3cnc(N4C5CCC4CN(c4cc(-c6ccccc6O)nnc4N)C5)nc3)CC2)C(C)(C)C)cc1 [I-344] | < 50 | > 1000 | 50 to 70 | > 1000
8 | Cc1cc(CC(=O)N[C@H](C(=O)N2C[C@H](O)C[C@H]2C(=O)NCc2ccc(-c3scnc3C)cc2)C(C)(C)C)ccc1-c1cnc(N2C3CCC2CN(c2cc(-c4ccccc4O)nnc2N)C3)nc1 [I-345] | > 90 | < 100 | > 90 | < 100
9 | Cc1ncsc1-c1ccc(CNC(=O)[C@@H]2C[C@@H](O)CN2C(=O)C(NC(=O)C[C@H]2CC[C@@H](N3CCC(c4cnc(N5C6CCC5CN(c5cc(-c7ccccc7O)nnc5N)C6)nc4)CC3)CC2)C(C)(C)C)cc1 (stereo partly drawn) [I-346] | > 90 | 100 to 500 | 70 to 90 | < 100
10 | Cc1ncsc1-c1ccc(CNC(=O)[C@@H]2C[C@@H](O)CN2C(=O)[C@@H](NC(=O)[C@H]2CC[C@@H](N3CCC(c4cnc(N5C6CCC5CN(c5cc(-c7ccccc7O)nnc5N)C6)nc4)CC3)CC2)C(C)(C)C)cc1 [I-347] | 70 to 90 | 100 to 500 | 50 to 70 | > 1000
11 | Cc1ncsc1-c1ccc(CNC(=O)[C@@H]2C[C@@H](O)CN2C(=O)[C@@H](NC(=O)c2ccc(CN3CCC(c4cnc(N5C6CCC5CN(c5cc(-c7ccccc7O)nnc5N)C6)nc4)CC3)cc2)C(C)(C)C)cc1 [I-348] | > 90 | < 100 | > 90 | < 100
12 | Cc1ncsc1-c1ccc(CNC(=O)[C@@H]2C[C@@H](O)CN2C(=O)[C@@H](NC(=O)N2CCC(N3CCC(c4cnc(N5C6CCC5CN(c5cc(-c7ccccc7O)nnc5N)C6)nc4)CC3)CC2)C(C)(C)C)cc1 [I-350, 4-(2-(3-(3-amino-6-(2-hydroxyphenyl)pyridazin-4-yl)-3,8-diazabicyclo [3.2.1]octan-8-yl)pyrimidin-5-yl)-N—((S)-1-((2S,4R)-4-hydroxy-2-((4-(4-methylthiazol-5-yl)benzyl)carbamoyl)pyrrolidin-1-yl)-3,3-dimethyl-1-oxobutan-2-yl)-[1,4′-bipiperidine]-1′-carboxamide] | < 50 | > 1000 | < 50 | > 1000
13 | Cc1ncsc1-c1ccc(CNC(=O)[C@@H]2C[C@@H](O)CN2C(=O)[C@@H](NC(=O)CCCCN2CCC(CN3CCC(Cn4cc(-c5cc(-c6ccccc6O)nnc5N)cn4)CC3)CC2)C(C)(C)C)cc1 [I-351] | < 50 | > 1000 | < 50 | > 1000
14 | Cc1ncsc1-c1ccc(CNC(=O)[C@@H]2C[C@@H](O)CN2C(=O)[C@@H](NC(=O)CCCCN2CCC(C(=O)N3CCC(Cn4cc(-c5cc(-c6ccccc6O)nnc5N)cn4)CC3)CC2)C(C)(C)C)cc1 [I-352] | < 50 | > 1000 | < 50 | > 1000
15 | Cc1ncsc1-c1ccc(CNC(=O)[C@@H]2C[C@@H](O)CN2C(=O)[C@@H](NC(=O)c2ccc(-c3ccc(N4CCC(Cn5cc(-c6cc(-c7ccccc7O)nnc6N)cn5)CC4)cc3)cc2)C(C)(C)C)cc1 [I-353] | < 50 | > 1000 | 70 to 90 | > 1000
16 | Cc1ncsc1-c1ccc(CNC(=O)[C@@H]2C[C@@H](O)CN2C(=O)[C@@H](NC(=O)[C@H]2CC[C@H](N3CCC(c4cnc(N5C6CCC5CN(c5cc(-c7ccccc7O)nnc5N)C6)nc4)CC3)CC2)C(C)(C)C)cc1 [I-355] | > 90 | 100 to 500 | 70 to 90 | 100 to 500
17 | Cc1ncsc1-c1ccc(CNC(=O)[C@@H]2C[C@@H](O)CN2C(=O)[C@@H](NC(=O)[C@H]2C[C@H](N3CCC(c4cnc(N5C6CCC5CN(c5cc(-c7ccccc7O)nnc5N)C6)nc4)CC3)C2)C(C)(C)C)cc1 [I-356] | 70 to 90 | 100 to 500 | > 90 | < 100
18 | Cc1ncsc1-c1ccc(CNC(=O)[C@@H]2C[C@@H](O)CN2C(=O)[C@@H](NC(=O)COCCCc2cnc(N3C4CCC3CN(c3cc(-c5ccccc5O)nnc3N)C4)nc2)C(C)(C)C)cc1 [I-357] | > 90 | 100 to 500 | > 90 | < 100
19 | Cc1ncsc1-c1ccc(CNC(=O)[C@@H]2C[C@@H](O)CN2C(=O)[C@@H](NC(=O)[C@H]2C[C@@H](N3CCC(n4cc(-c5cc(-c6ccccc6O)nnc5N)cn4)CC3)C2)C(C)(C)C)cc1 [I-358] | 70 to 90 | 501 to 1000 | > 90 | 100 to 500
20 | Cc1ncsc1-c1ccc(CNC(=O)[C@@H]2C[C@@H](O)CN2C(=O)[C@@H](NC(=O)[C@H]2C[C@H](N3CCC(n4cc(-c5cc(-c6ccccc6O)nnc5N)cn4)CC3)C2)C(C)(C)C)cc1 [I-359] | < 50 | > 1000 | < 50 | > 1000
21 | Cc1ncsc1-c1ccc(CNC(=O)[C@@H]2C[C@@H](O)CN2C(=O)[C@@H](NC(=O)[C@H]2CC[C@@H](N3CCC(n4cc(-c5cc(-c6ccccc6O)nnc5N)cn4)CC3)CC2)C(C)(C)C)cc1 [I-360] | < 50 | > 1000 | 50 to 70 | > 1000
22 | Cc1ncsc1-c1ccc(CNC(=O)[C@@H]2C[C@@H](O)CN2C(=O)[C@@H](NC(=O)[C@H]2CC[C@H](N3CCC(n4cc(-c5cc(-c6ccccc6O)nnc5N)cn4)CC3)CC2)C(C)(C)C)cc1 [I-361] | 50 to 70 | 501 to 1000 | < 50 | > 1000
23 | Cc1ncsc1-c1ccc(CNC(=O)[C@@H]2C[C@@H](O)CN2C(=O)[C@@H](NC(=O)[C@H]2CC[C@@H](c3nccc(N4C5CCC4CN(c4cc(-c6ccccc6O)nnc4N)C5)n3)CC2)C(C)(C)C)cc1 [I-362] | 70 to 90 | 501 to 1000 | > 90 | < 100
24 | Cc1ncsc1-c1ccc(CNC(=O)[C@@H]2C[C@@H](O)CN2C(=O)[C@@H](NC(=O)[C@H]2CC[C@H](c3nccc(N4C5CCC4CN(c4cc(-c6ccccc6O)nnc4N)C5)n3)CC2)C(C)(C)C)cc1 [I-363] | > 90 | 100 to 500 | > 90 | < 100
25 | Cc1ncsc1-c1ccc(CNC(=O)[C@@H]2C[C@@H](O)CN2C(=O)[C@@H](NC(=O)C[C@H]2CC[C@H](c3nccc(N4C5CCC4CN(c4cc(-c6ccccc6O)nnc4N)C5)n3)CC2)C(C)(C)C)cc1 [I-364] | > 90 | 100 to 500 | > 90 | < 100
26 | Cc1ncsc1-c1ccc(CNC(=O)[C@@H]2C[C@@H](O)CN2C(=O)[C@@H](NC(=O)C[C@H]2CC[C@@H](c3nccc(N4C5CCC4CN(c4cc(-c6ccccc6O)nnc4N)C5)n3)CC2)C(C)(C)C)cc1 [I-365] | > 90 | 100 to 500 | > 90 | < 100
27 | Cc1ncsc1-c1ccc(CNC(=O)[C@@H]2C[C@@H](O)CN2C(=O)[C@@H](NC(=O)CCCN2CCC(c3cnc(N4C5CCC4CN(c4cc(-c6ccccc6O)nnc4N)C5)nc3)CC2)C(C)(C)C)cc1 [I-382] | < 50 | > 1000 | < 50 | > 1000
